Experimental data taken from US20070219243A1, “Method for improving the pharmacokinetics of HIV integrase inhibitors” (priority 2005, published 2007).

Assay: Example 7: safety of single 400 mg dose
Type: in vivo, human
Settings: single oral 400 mg dose, fasted and fed, healthy Japanese males
Description: The subjects were admitted to the medical institution in the afternoon on the day before administration (“Day-1”). […] The subjects were discharged the day after administration (“Day 2”). Thus, the subjects were hospitalized for a total of three days. Follow up assessment for safety was performed 6 to 8 days after administration (“Days 7 to 9”).

COc1cc2c(cc1Cc1cccc(Cl)c1F)c(=O)c(C(=O)O)cn2[C@H](CO)C(C)C [Compound 1, 6-(3-chloro-2-fluorobenzyl)-1-[(2S)-1-hydroxy-3-methylbutan-2-yl]-7-methoxy-4-oxo-1,4-dihydroquinoline-3-carboxylic acid]
Safety and tolerability: safe and well tolerated
